According to US10512627B2, “Anti-tumor compound and the medical use thereof” (Tianjin Medical University Cancer Institute and Hospital, priority 2014, dated 2019):
Where two headings read alike, the source gives them in different places.

Key:
[1] = system: human breast cancer cells MDA-MB-231; experiment: Scratching assay, migration of MDA-MB-231 (Example 14); type: cell-based; details: 20 μmol/L, 0-24 h
Description: The inhibiting ability of 2-(4′-methyl-3′-nitrobenzoylamino)-3-indolylpropionic acid (TCI05), 2-(4′-methyl-3′-nitrobenzoylamino)-3-(4-hydroxy-phenyl) propionic acid (TCI06), 2-(4′-methyl-3′-nitrobenzenemethoxycarbonyl)-3-phenylpropionic acid (TCI07), 2-(4′-methyl-3′-nitrobenzenemethoxycarbonyl)-3-indolylpropionic acid (TCI08) for the migration of human breast cancer cells MDA-MB-231 was tested by scratching assay.
The MDA-MB-231 cells in logarithmic growth phase were seeded in the 6-well plate at a density of 1×10^6/3 ml, and 12 h later, TCI05, TCI06, TCI07, TCI08 (formulation was the same as TCI04) was added, 150 μl per well, with the final concentration of 20 μmol/L. The negative control was 150 μL sterilized water with 2% DMSO. 48 h later, 200 ul tips were used to scratch, and after washing 4 times with PBS, 3 ml medium without fetal bovine serum was added per well. Under the inverted microscope, the distance of cell migration was recorded every 3 h, and photos were taken at 0 h and 24 h.

[2] = system: human breast cancer cell MDA-MB-231; experiment: Scratching assay, migration of MDA-MB-231 (Example 16); type: cell-based; details: for average (scratch assay distance): control 13.1667
Description: The inhibiting ability of 4-hydroxy-3-nitrobenzoic acid and 4-amino-3nitrobenzoic acid for the migration of human breast cancer cell MDA-MB-231 was tested by scratching assay.
Three lines were marked on the underside of 6-well plate, MDA-MB-231 breast cancer cells in logarithmic growth phase were digested with 0.7 mL 0.08% trypsin for 1 min, and the digestion was stopped with complete culture medium. After centrifugation at 1000 r/min for 3 min, the supernatant was discarded, then 3 mL complete culture medium was added. After pipetting to make suspension of single cell, the cells in the cell suspension was counted, and the concentration of the cells was adjusted to a density of 5×10^5 cells/well to plate the 6 wells plate, and 6 groups of drugs containing complete culture medium (DMEM+10% FBS+1% Penicillin-Streptomycin+drug) were added. After culturing in a incubator for 12 h until the cells were attached, the culture medium was removed, 20 μL tips were used to scratch vertically to the three transverse lines on the underside to obtain 6 distances for counting, and after washing with phosphate buffered saline (PBS) three times, 6 groups of drugs containing culture medium without FBS (DMEM+drug) were added respectively, and the width of the scratches were observed and recorded at 0 h, 3 h, 6 h, 9 h, 12 h and 24 h under inverted microscope, with 6 distances being recorded per well, wherein, photos were taken with inverted microscope at 0 h and 24 h for recording.

MDA-MB-231 cells = experiment: MTT assay, synergistic effect with Paclitaxel (Example 12); type: cell-based, human; details: Homo sapiens
Description: Synergistic effects of (S)2-(4′-methyl-3′-nitrobenzoylamino)-3-phenylpropionic acid and Paclitaxel was tested by MTT assay.
1) The MDA-MB-231 cells in logarithmic growth phase were seeded in the 96-well plate at a density of 4×10^3/0.2 ml. After culturing for 12 h, 10 μl Paclitaxel solution was added, with the final concentration of 0, 0.001, 0.01, 0.1, 1, 10, 50, 100, 200 μM, then 10 μL (S)2-(4′-methyl-3′-nitrobenzoylamino)-3-phenylpropionic acid PBS solution was add to half of the wells for each group with the final concentration of 20 μM, followed by continuous culturing for 24 or 48 h.
2) 5 mg/mL MTT solution was prepared with sterilized PBS, filtered with 0.22 μm film, and diluted with medium to 1 mg/mL. After discarding the medium in the 96-well plate, 100 μL 1 mg/mL MTT working solution was added, followed by continuous culturing for 5 h.
3) MTT working solution was discarded, and 150 μL DMSO was added per well (note: to away from light). The plate was shaken on a horizontal shaker at 170 rpm for 10 min, and then the absorbance at 490 nm was detected by microplate reader.

4T1-luciferase cells = experiment: In situ model of breast cancer in nude mouse, lung metastasis by in vivo imaging (Example 7); set-up: species or system nude mice; details: 50 mg/kg tail vein, twice a day, 21 days; P<0.01
Description: 4) An in situ breast cancer model is constructed by in situ inoculating nude mice with 4T1 cells which are stably transfected with Luciferase, and the number of metastatic tumors on the lung is detected by in vivo imaging system. Such a model mimics the occurrence and metastasis of breast cancer.
The ability of (S)2-(4′-methyl-3′-nitrobenzoylamino)-3-phenylpropionic acid for inhibiting tumor metastasis in vivo was tested by in situ model of breast cancer in nude mouse.
1) Mice grouping: Nude female mice of SPF grade, 5 weeks old, 18˜22 g, 8 mice for each group;
2) The mother liquid of (S)2-(4′-methyl-3′-nitrobenzoylamino)-3-phenylpropionic acid (TCI04) for the dosage form administrated by intravenous injection was diluted to 2 mg/mL, 0.1 mg/mL by adding sterilized water. The dosage for administration in mice was as follows, high dosage of 20 mg/kg; low dosage of 1 mg/kg. […]
3) 4T1-luciferase cells in logarithmic growth phase were digested with 0.05% typsine for 1 min, after centrifugation at 1000 rpm for 5 min, the supernatant was discarded and the cells were resuspended and counted. […]
5) After the completion of the administration, the mice were detected by in vivo imaging system for the condition of tumor metastasis and immediately sacrificed; the lungs alone were detected by the in vivo imaging system for the light intensity to determine the number of tumor metastasis.

Compound: 2-(4′-methyl-3′-nitrobenzoylamino)-3-indolyl propionic acid [TCI05]
- inhibition of migration ability (coalescence speed of cell scratch vs negative control) [1]: obviously inhibit

Compound: Nc1ccc(C(=O)O)cc1[N+](=O)[O-] [4-amino-3-nitrobenzoic acid]
- inhibition of migration ability (coalescence speed of cell scratch vs negative control) [2]: obviously inhibit
- average (scratch assay distance) [2]: 8.1667 10^−2 mm

Compound: O=C(O)c1ccc(O)c([N+](=O)[O-])c1 [4-hydroxy-3-nitrobenzoic acid]
- inhibition of migration ability (coalescence speed of cell scratch vs negative control) [2]: obviously inhibit
- average (scratch assay distance) [2]: 8 10^−2 mm

Compound: CC(=O)O[C@H]1C(=O)[C@@]2(C)[C@H]([C@H](OC(=O)c3ccccc3)[C@]3(O)C[C@H](OC(=O)[C@H](O)[C@@H](NC(=O)c4ccccc4)c4ccccc4)C(C)=C1C3(C)C)[C@]1(OC(C)=O)CO[C@@H]1C[C@@H]2O [Paclitaxel]
- IC50 (MDA-MB-231 cells; MDA-MB-231, 24 h, Paclitaxel + 20 μM (S)2-(4′-methyl-3′-nitrobenzoylamino)-3-phenylpropionic acid, read-out: IC50 after 24 h): 395 nM
- IC50 (MDA-MB-231 cells; MDA-MB-231, 24 h, Paclitaxel alone, read-out: IC50 after 24 h): 3970 nM
- IC50 (MDA-MB-231 cells; MDA-MB-231, 48 h, Paclitaxel + 20 μM (S)2-(4′-methyl-3′-nitrobenzoylamino)-3-phenylpropionic acid, read-out: IC50 after 48 h): 46 nM
- IC50 (MDA-MB-231 cells; MDA-MB-231, 48 h, Paclitaxel alone, read-out: IC50 after 48 h): 512 nM

Compound: Cc1ccc(C(=O)O)cc1[N+](=O)[O-] [TCI01, 4-methyl-3-nitrobenzoic acid, reference compound]
- light intensity of the whole lung vs negative control (4T1-luciferase cells): significantly weaker than the negative control

Compound: Cc1ccc(C(=O)NC(Cc2ccc(O)cc2)C(=O)O)cc1[N+](=O)[O-] (stereo not shown) [TCI06, 2-(4′-methyl-3′-nitrobenzoylamino)-3-(4-hydroxy-phenyl)propionic acid]
- inhibition of migration ability (coalescence speed of cell scratch vs negative control) [1]: obviously inhibit

Compound: Cc1ccc(COC(=O)C(Cc2ccccc2)C(=O)O)cc1[N+](=O)[O-] (stereo not shown) [TCI07, 2-(4′-methyl-3′-nitrobenzenemethoxycarbonyl)-3-phenylpropionic acid]
- inhibition of migration ability (coalescence speed of cell scratch vs negative control) [1]: obviously inhibit

Compound: Cc1ccc(COC(=O)C(Cc2c[nH]c3ccccc23)C(=O)O)cc1[N+](=O)[O-] (stereo not shown) [TCI08, 2-(4′-methyl-3′-nitrobenzenemethoxycarbonyl)-3-indolylpropionic acid]
- inhibition of migration ability (coalescence speed of cell scratch vs negative control) [1]: obviously inhibit
